Tests used:
Assay in all cases: relative viability (nuclei count vs DMSO), 5 days (fraction); higher = more cells survive
[1] = compound: CCN1C(=O)C2=CC(=C(N=C2N(C1=O)C3CC3)N)C(=O)N + CC(C)C[C@H](NC(=O)[C@H](Cc1ccccc1)NC(=O)c1cnccn1)B(O)O [Bortezomib] (partner 0.002 µM)
Outline: (§1)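 Medians of duplicate plates are given as relative viability. That measure is the nuclei count in treated wells divided by the count in vehicle wells. Counts were taken on 4× images of lung cancer cell lines in 1536-well plates, 5 days after pin-tool dosing the day after seeding with one drug alone or a fixed anchor-drug dose plus five library-drug doses (not always all listed) in √10 steps.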

[2] = compound: CCN1C(=O)C2=CC(=C(N=C2N(C1=O)C3CC3)N)C(=O)N + CC(=O)c1c(C)c2cnc(Nc3ccc(N4CCNCC4)cn3)nc2n(C2CCCC2)c1=O [Palbociclib] (partner 0.5 µM)
Outline: as §1

[3] = compound: CCN1C(=O)C2=CC(=C(N=C2N(C1=O)C3CC3)N)C(=O)N + Nc1ncn([C@H]2C[C@H](O)[C@@H](CO)O2)c(=O)n1 [Decitabine] (partner 2 µM)
Outline: as §1

[4] = compound: CCN1C(=O)C2=CC(=C(N=C2N(C1=O)C3CC3)N)C(=O)N + COc1cc2c(Oc3ccc(NC(=O)C4(C(=O)Nc5ccc(F)cc5)CC4)cc3F)ccnc2cc1OCCCN1CCOCC1 [Foretinib] (partner 0.25 µM)
Outline: as §1

[5] = compound: CCN1C(=O)C2=CC(=C(N=C2N(C1=O)C3CC3)N)C(=O)N + Nc1nc2[nH]cc(CCc3ccc(C(=O)N[C@@H](CCC(=O)O)C(=O)O)cc3)c2c(=O)[nH]1 [Pemetrexed] (partner 0.2 µM)
Outline: as §1

NCI-H2087
relative viability ([1]; first compound 0.253 µM): 0.837
relative viability ([1]; first compound 0.8 µM): 0.845
relative viability ([1]; first compound 2.53 µM): 0.781
relative viability ([1]; first compound 8 µM): 0.985
relative viability ([2]; first compound 0.253 µM): 0.216
relative viability ([2]; first compound 0.8 µM): 0.238
relative viability ([2]; first compound 2.53 µM): 0.275
relative viability ([2]; first compound 8 µM): 0.236
relative viability ([3]; first compound 0.253 µM): 0.324
relative viability ([3]; first compound 0.8 µM): 0.251
relative viability ([3]; first compound 2.53 µM): 0.297
relative viability ([3]; first compound 8 µM): 0.298
relative viability ([4]; first compound 0.253 µM): 1.04
relative viability ([4]; first compound 0.8 µM): 1.25
relative viability ([4]; first compound 2.53 µM): 1.08
relative viability ([4]; first compound 8 µM): 1.12
relative viability ([5]; first compound 0.253 µM): 0.676
relative viability ([5]; first compound 0.8 µM): 0.629
relative viability ([5]; first compound 2.53 µM): 0.677
relative viability ([5]; first compound 8 µM): 0.608

NCI-H2126
relative viability ([1]; first compound 0.253 µM): 1.14
relative viability ([1]; first compound 0.8 µM): 1.14
relative viability ([1]; first compound 2.53 µM): 1.16
relative viability ([1]; first compound 8 µM): 1.05
relative viability ([2]; first compound 0.253 µM): 0.332
relative viability ([2]; first compound 0.8 µM): 0.345
relative viability ([2]; first compound 2.53 µM): 0.349
relative viability ([2]; first compound 8 µM): 0.364
relative viability ([3]; first compound 0.253 µM): 0.552
relative viability ([3]; first compound 0.8 µM): 0.544
relative viability ([3]; first compound 2.53 µM): 0.541
relative viability ([3]; first compound 8 µM): 0.622
relative viability ([4]; first compound 0.253 µM): 1.34
relative viability ([4]; first compound 0.8 µM): 0.76
relative viability ([4]; first compound 2.53 µM): 1.09
relative viability ([4]; first compound 8 µM): 1.12
relative viability ([5]; first compound 0.253 µM): 0.682
relative viability ([5]; first compound 0.8 µM): 0.671
relative viability ([5]; first compound 2.53 µM): 0.674
relative viability ([5]; first compound 8 µM): 0.674

NCI-H2347
relative viability ([1]; first compound 0.253 µM): 0.982
relative viability ([1]; first compound 0.8 µM): 0.933
relative viability ([1]; first compound 2.53 µM): 1.19
relative viability ([1]; first compound 8 µM): 0.778
relative viability ([2]; first compound 0.253 µM): 0.458
relative viability ([2]; first compound 0.8 µM): 0.489
relative viability ([2]; first compound 2.53 µM): 0.445
relative viability ([2]; first compound 8 µM): 0.492
relative viability ([3]; first compound 0.253 µM): 0.722
relative viability ([3]; first compound 0.8 µM): 0.66
relative viability ([3]; first compound 2.53 µM): 0.622
relative viability ([3]; first compound 8 µM): 0.643
relative viability ([4]; first compound 0.253 µM): 0.797
relative viability ([4]; first compound 0.8 µM): 1.09
relative viability ([4]; first compound 2.53 µM): 1.43
relative viability ([4]; first compound 8 µM): 1.09
relative viability ([5]; first compound 0.253 µM): 0.458
relative viability ([5]; first compound 0.8 µM): 0.442
relative viability ([5]; first compound 2.53 µM): 0.421
relative viability ([5]; first compound 8 µM): 0.447

NCI-H2405
relative viability ([1]; first compound 0.253 µM): 1
relative viability ([1]; first compound 0.8 µM): 1.05
relative viability ([1]; first compound 2.53 µM): 1.01
relative viability ([1]; first compound 8 µM): 0.952
relative viability ([2]; first compound 0.253 µM): 0.523
relative viability ([2]; first compound 2.53 µM): 0.554
relative viability ([2]; first compound 8 µM): 0.527
relative viability ([3]; first compound 0.253 µM): 0.771
relative viability ([3]; first compound 2.53 µM): 0.718
relative viability ([3]; first compound 8 µM): 0.669
relative viability ([4]; first compound 0.253 µM): 1.04
relative viability ([4]; first compound 0.8 µM): 1.05
relative viability ([4]; first compound 2.53 µM): 1.07
relative viability ([4]; first compound 8 µM): 1.06
relative viability ([5]; first compound 0.253 µM): 1.1
relative viability ([5]; first compound 2.53 µM): 1.14
relative viability ([5]; first compound 8 µM): 1.03

NCI-H3122
relative viability ([1]; first compound 0.253 µM): 1.04
relative viability ([1]; first compound 0.8 µM): 1.01
relative viability ([1]; first compound 2.53 µM): 1.02
relative viability ([1]; first compound 8 µM): 1.01
relative viability ([2]; first compound 0.253 µM): 0.183
relative viability ([2]; first compound 0.8 µM): 0.182
relative viability ([2]; first compound 2.53 µM): 0.152
relative viability ([2]; first compound 8 µM): 0.209
relative viability ([3]; first compound 0.253 µM): 0.396
relative viability ([3]; first compound 0.8 µM): 0.432
relative viability ([3]; first compound 2.53 µM): 0.434
relative viability ([3]; first compound 8 µM): 0.427
relative viability ([4]; first compound 0.253 µM): 1.02
relative viability ([4]; first compound 0.8 µM): 0.991
relative viability ([4]; first compound 2.53 µM): 0.968
relative viability ([4]; first compound 8 µM): 0.916
relative viability ([5]; first compound 0.253 µM): 0.217
relative viability ([5]; first compound 0.8 µM): 0.198
relative viability ([5]; first compound 2.53 µM): 0.202
relative viability ([5]; first compound 8 µM): 0.192

PC-3 [JPC-3]
relative viability ([1]; first compound 0.253 µM): 0.874
relative viability ([1]; first compound 0.8 µM): 0.799
relative viability ([1]; first compound 2.53 µM): 0.914
relative viability ([1]; first compound 8 µM): 0.801
relative viability ([2]; first compound 0.253 µM): 0.545
relative viability ([2]; first compound 2.53 µM): 0.559
relative viability ([2]; first compound 8 µM): 0.52
relative viability ([3]; first compound 0.253 µM): 0.81
relative viability ([3]; first compound 2.53 µM): 0.871
relative viability ([3]; first compound 8 µM): 0.886
relative viability ([4]; first compound 0.253 µM): 1.02
relative viability ([4]; first compound 0.8 µM): 1.03
relative viability ([4]; first compound 2.53 µM): 1
relative viability ([4]; first compound 8 µM): 0.929
relative viability ([5]; first compound 0.253 µM): 1.1
relative viability ([5]; first compound 2.53 µM): 1.26
relative viability ([5]; first compound 8 µM): 1.2

PC-14
relative viability ([1]; first compound 0.253 µM): 0.966
relative viability ([1]; first compound 0.8 µM): 0.932
relative viability ([1]; first compound 2.53 µM): 0.807
relative viability ([1]; first compound 8 µM): 0.919
relative viability ([2]; first compound 0.253 µM): 0.555
relative viability ([2]; first compound 0.8 µM): 0.525
relative viability ([2]; first compound 2.53 µM): 0.526
relative viability ([2]; first compound 8 µM): 0.514
relative viability ([3]; first compound 0.253 µM): 0.207
relative viability ([3]; first compound 0.8 µM): 0.171
relative viability ([3]; first compound 2.53 µM): 0.244
relative viability ([3]; first compound 8 µM): 0.193
relative viability ([4]; first compound 0.253 µM): 0.914
relative viability ([4]; first compound 0.8 µM): 0.961
relative viability ([4]; first compound 2.53 µM): 0.954
relative viability ([4]; first compound 8 µM): 0.969
relative viability ([5]; first compound 0.253 µM): 0.133
relative viability ([5]; first compound 0.8 µM): 0.14
relative viability ([5]; first compound 2.53 µM): 0.141
relative viability ([5]; first compound 8 µM): 0.149

RERF-LC-KJ
relative viability ([1]; first compound 0.253 µM): 1.01
relative viability ([1]; first compound 0.8 µM): 1.03
relative viability ([1]; first compound 2.53 µM): 1.02
relative viability ([1]; first compound 8 µM): 1.01
relative viability ([2]; first compound 0.253 µM): 1.09
relative viability ([2]; first compound 0.8 µM): 1.1
relative viability ([2]; first compound 2.53 µM): 1.09
relative viability ([2]; first compound 8 µM): 1.13
relative viability ([3]; first compound 0.253 µM): 0.772
relative viability ([3]; first compound 0.8 µM): 0.742
relative viability ([3]; first compound 2.53 µM): 0.68
relative viability ([3]; first compound 8 µM): 0.593
relative viability ([4]; first compound 0.253 µM): 0.868
relative viability ([4]; first compound 0.8 µM): 0.875
relative viability ([4]; first compound 2.53 µM): 0.898
relative viability ([4]; first compound 8 µM): 0.884
relative viability ([5]; first compound 0.253 µM): 0.473
relative viability ([5]; first compound 0.8 µM): 0.448
relative viability ([5]; first compound 2.53 µM): 0.472
relative viability ([5]; first compound 8 µM): 0.481

SK-LU-1
relative viability ([1]; first compound 0.8 µM): 1.36
relative viability ([1]; first compound 2.53 µM): 1.29
relative viability ([1]; first compound 8 µM): 1.29
relative viability ([2]; first compound 0.253 µM): 0.389
relative viability ([2]; first compound 0.8 µM): 0.45
relative viability ([2]; first compound 2.53 µM): 0.371
relative viability ([2]; first compound 8 µM): 0.412
relative viability ([3]; first compound 0.253 µM): 0.63
relative viability ([3]; first compound 0.8 µM): 0.72
relative viability ([3]; first compound 2.53 µM): 0.782
relative viability ([3]; first compound 8 µM): 0.669
relative viability ([4]; first compound 0.253 µM): 0.925
relative viability ([4]; first compound 0.8 µM): 0.799
relative viability ([4]; first compound 2.53 µM): 0.839
relative viability ([4]; first compound 8 µM): 1
relative viability ([5]; first compound 0.253 µM): 0.933
relative viability ([5]; first compound 0.8 µM): 1.06
relative viability ([5]; first compound 2.53 µM): 1
relative viability ([5]; first compound 8 µM): 1.04

SW 1573
relative viability ([1]; first compound 0.253 µM): 0.994
relative viability ([1]; first compound 0.8 µM): 1.14
relative viability ([1]; first compound 2.53 µM): 0.935
relative viability ([1]; first compound 8 µM): 1.04
relative viability ([2]; first compound 0.253 µM): 0.39
relative viability ([2]; first compound 0.8 µM): 0.384
relative viability ([2]; first compound 2.53 µM): 0.399
relative viability ([2]; first compound 8 µM): 0.451
relative viability ([3]; first compound 0.253 µM): 0.573
relative viability ([3]; first compound 0.8 µM): 0.582
relative viability ([3]; first compound 2.53 µM): 0.434
relative viability ([3]; first compound 8 µM): 0.476
relative viability ([4]; first compound 0.253 µM): 0.978
relative viability ([4]; first compound 0.8 µM): 0.762
relative viability ([4]; first compound 2.53 µM): 0.832
relative viability ([4]; first compound 8 µM): 0.933
relative viability ([5]; first compound 0.253 µM): 0.855
relative viability ([5]; first compound 0.8 µM): 0.884
relative viability ([5]; first compound 2.53 µM): 0.844
relative viability ([5]; first compound 8 µM): 0.791

UMC-11
relative viability ([1]; first compound 0.253 µM): 0.714
relative viability ([1]; first compound 0.8 µM): 0.649
relative viability ([1]; first compound 2.53 µM): 0.674
relative viability ([1]; first compound 8 µM): 0.836
relative viability ([2]; first compound 0.253 µM): 0.333
relative viability ([2]; first compound 0.8 µM): 0.336
relative viability ([2]; first compound 2.53 µM): 0.336
relative viability ([2]; first compound 8 µM): 0.279
relative viability ([3]; first compound 0.253 µM): 0.71
relative viability ([3]; first compound 0.8 µM): 0.604
relative viability ([3]; first compound 2.53 µM): 0.617
relative viability ([3]; first compound 8 µM): 0.457
relative viability ([4]; first compound 0.253 µM): 1.02
relative viability ([4]; first compound 0.8 µM): 1.05
relative viability ([4]; first compound 2.53 µM): 1.1
relative viability ([4]; first compound 8 µM): 1.13
relative viability ([5]; first compound 0.253 µM): 0.867
relative viability ([5]; first compound 0.8 µM): 0.846
relative viability ([5]; first compound 2.53 µM): 0.761
relative viability ([5]; first compound 8 µM): 0.845

From the supplement of paper PMC10307832
